Measurements taken from patent US6336949B1, “Slow release urea fertilizer composition and a process for the preparation of the said composition” (Council of Scientific & Industrial Research, priority 1999, dated 2002).

Tests used:
[1] = system: menthol mint (Mentha arvensis); test: Greenhouse pot culture experiment: herb yield, N accumulation, apparent N recovery; assay type: in vivo; details: urea N 100 mg kg^−1, coating materials added at 1.00% w/w (Nil for urea alone)
Experimental: To confirm the results of the incubation a pot culture experiment was conducted subsequently taking menthol mint (Mentha arvensis) as the test crops. Eight kg soil (<2 mm) were put in plastic container. The same fertilizers coating treatments as were in incubation experiment were imposed in this experiment, except that instead of two levels of coating materials, these were applied at 1.00% on v/w basis. The experiment was laid in a completely randomized design with four replications. The soils were analyzed for mineral forms of N at regular intervals. In addition, the plant samples were analyzed for N accumulation and apparent N recovery. [formula]

urease = details: no coating material; urea 100 mg N kg^−1 soil; 24 hours of incubation
Actinomycetes = test: Total actinomycetes population in soil; assay type: cell-based; details: no coating material; urea 100 mg N kg^−1 soil
Experimental: (§1) Representative soil samples were analyzed for different forms of N i.e., urea N, NH4 and NO3-N at regular intervals for two weeks to assess the nitrification inhibitory properties of the materials in question following the standard procedures (Douglas and Bremner, 1970, Soil Sci. Soc. Am. Proc. 34:859-862). Another set of experiment was conducted to assay the total bacterial population, total actinomycetes population and nitrifying bacteria viz., Nitrosomons and Nitrobacber (Alexander and Clark, 1965, In. Method of Soil Analysis Part II (CA Black Eds) Am. Soc .Agron. Inc. Wisconsin, U.S.A.; KenKnight and Torariko. 1973, Agrokhimiya 7:3)

Nitrosomonus = Nitrosomonus population in soil; assay type: cell-based; details: no coating material; urea 100 mg N kg^−1 soil
Experimental: as §1

Total bacteria = test: Total bacterial population in soil; assay type: cell-based; details: no coating material; urea 100 mg N kg^−1 soil
Experimental: as §1

Nitrobacter = Nitrobacter population in soil; assay type: cell-based; details: no coating material; urea 100 mg N kg^−1 soil
Experimental: as §1

NC(N)=O [Urea alone, Urea]
Apparent recovery (apparent N recovery) [1]: 29.1% | Herb yield [1]: 42.8 g pot^−1 | N accumulation [1]: 450 mg pot^−1 | Apparent recovery (apparent N recovery) ([1]; listed as urea alone): 29% | Urease activity (urease): 66.5 μg NH4—N liberated/g soil/hour | Actinomycetes (Actinomycetes): 5.66 × 104, g^−1 soil | Nitrosomonus (Nitrosomonus): 3.30 × 103, g^−1 soil | Total bacteria (Total bacteria): 4.00 × 105, g^−1 soil | Nitrobacter (Nitrobacter): 14.00 × 103, g^−1 soil
